Laboratory results from patent US7511042B2, “Triazole compounds” (Boehringer Ingelheim Pharmaceuticals, Inc., priority 2003, dated 2009).

Row | Structure (SMILES) | melting point
1 | COc1cnc(C(C)(C)C)cc1NC(=O)c1ccc(C)c(-n2cc(C(=O)NCC(C)(C)C)nn2)c1 [Example 12, 1-[5-(2-tert-Butyl-5-methoxy-pyridin-4-ylcarbamoyl)-2-methyl-phenyl]-1H-1,2,3-triazole-4-carboxylic acid (2,2-dimethyl-propyl)-amide] | 181 to 182 °C (dec.)
2 | Cc1ccc(C(=O)Nc2cc(C(C)(C)C)ccc2[S+](C)[O-])cc1-n1cc(C(=O)NCC(C)(C)C)nn1 (centres unmarked) [Example 13, 1-[5-(5-tert-Butyl-2-methanesulfinyl-phenylcarbamoyl)-2-methyl-phenyl]-1H-1,2,3-triazole-4-carboxylic acid (2,2-dimethyl-propyl)-amide] | 74 to 78 °C (dec.)
